Each structure is given as a SMILES string. Where a name gives a salt, the structure may show the parent alone.

One data set concerns Fibroblasts. As to the kind of experiment: Toxicity test on cells, Fibroblasts. It counts as cell-based. Particulars: Fibroblast; 48 hours of treatment, Hoechst nuclei staining. The procedure:
(§1) The compounds according to the invention were also tested on the cell lines HuH7, CaCo-2, HCT116, PC3, NCl, HacaT and Fibroblasts.
(§2) Operating Procedure: The cells were cultivated according to the ECACC recommendations. The toxicity test of the compounds on these cells was conducted as follows: 4×10^3 cells/well were sown in 96 wells. 24 hours after sowing the cells, the cells were exposed to increased concentrations of the compounds (0.1 μM-0.3 μM-0.9 μM-2.7 μM-8.3 μM-25 μM). After 48 hours of treatment, the cells were washed in PBS and bound in a cold ethanol/acetic acid (90/5) mixture for 20 minutes. Next, the nuclei were coloured with […] (Sigma). The acquisition of images and the analysis was carried out by means of a reader Cellomics ArrayScan VTI/HCS (Thermo Scientific).

The test system of a further data set is HCT116. As to the kind of experiment: Toxicity test on cells, HCT116. It is filed as cell-based. Particulars: Homo sapiens, HCT-116; 48 hours of treatment, Hoechst nuclei staining. The procedure:
as §1, §2

Another data set has as its system MDA. The data set can be described thus: Toxicity test on cells, MDA. It counts as cell-based. Particulars: 48 hours of treatment, Hoechst nuclei staining. The procedure: [The procedure below names another cell line; the source lists this cell line under the same test.] as §1, §2
The next data set deals with NCl. As to the kind of experiment: Toxicity test on cells, NCl. It counts as cell-based. Particulars: 48 hours of treatment, Hoechst nuclei staining. The procedure:
as §1, §2

The subject of a further data set is PC3. As to the kind of experiment: Toxicity test on cells, PC3. The note with it: Homo sapiens, PC-3; 48 hours of treatment, Hoechst nuclei staining. It is filed as cell-based. The procedure: as §1, §2
A further data set relates to HUH7. The data set can be described thus: Toxicity test on cells, HUH7. It counts as cell-based. Particulars: Homo sapiens, Huh-7; 48 hours of treatment, Hoechst nuclei staining. The procedure: as §1, §2
Another data set relates to CaCo2. The data set can be described thus: Toxicity test on cells, CaCo2. The note with it: Homo sapiens, Caco-2; 48 hours of treatment, Hoechst nuclei staining. It is filed as cell-based. The procedure:
as §1, §2

The target of the next data set is PI3Kδ (Homo sapiens, UniProt O00329). As to the kind of experiment: PI3Kδ kinase activity, Adapta TR-FRET ADP detection. It is filed as biochemical. Particulars: purified p110δ/p85α heterodimer; read-out: Kinases IC50 PI3Kδ. The procedure: (§3) The activity of the PI3Kα kinase was evaluated by using a purified heterodimer (reference: PV4788 from Invitrogen) consisting of the α catalytic p110 subunit (PIK3CA) and the α regulation p85 subunit (PIK3R1). The assay of the kinase with the kit Adapta™ (reference: PV5099 from Invitrogen) is an enzymatic test based on the detection of ADP, produced during the reaction, by the fluorescence technique TR-FRET. It took place in a 384-well plate and was able to be divided into two phases: an enzymatic reaction phase, and a phase for detecting the ADP level.
Sequence of PI3Kδ (O00329 whole entry): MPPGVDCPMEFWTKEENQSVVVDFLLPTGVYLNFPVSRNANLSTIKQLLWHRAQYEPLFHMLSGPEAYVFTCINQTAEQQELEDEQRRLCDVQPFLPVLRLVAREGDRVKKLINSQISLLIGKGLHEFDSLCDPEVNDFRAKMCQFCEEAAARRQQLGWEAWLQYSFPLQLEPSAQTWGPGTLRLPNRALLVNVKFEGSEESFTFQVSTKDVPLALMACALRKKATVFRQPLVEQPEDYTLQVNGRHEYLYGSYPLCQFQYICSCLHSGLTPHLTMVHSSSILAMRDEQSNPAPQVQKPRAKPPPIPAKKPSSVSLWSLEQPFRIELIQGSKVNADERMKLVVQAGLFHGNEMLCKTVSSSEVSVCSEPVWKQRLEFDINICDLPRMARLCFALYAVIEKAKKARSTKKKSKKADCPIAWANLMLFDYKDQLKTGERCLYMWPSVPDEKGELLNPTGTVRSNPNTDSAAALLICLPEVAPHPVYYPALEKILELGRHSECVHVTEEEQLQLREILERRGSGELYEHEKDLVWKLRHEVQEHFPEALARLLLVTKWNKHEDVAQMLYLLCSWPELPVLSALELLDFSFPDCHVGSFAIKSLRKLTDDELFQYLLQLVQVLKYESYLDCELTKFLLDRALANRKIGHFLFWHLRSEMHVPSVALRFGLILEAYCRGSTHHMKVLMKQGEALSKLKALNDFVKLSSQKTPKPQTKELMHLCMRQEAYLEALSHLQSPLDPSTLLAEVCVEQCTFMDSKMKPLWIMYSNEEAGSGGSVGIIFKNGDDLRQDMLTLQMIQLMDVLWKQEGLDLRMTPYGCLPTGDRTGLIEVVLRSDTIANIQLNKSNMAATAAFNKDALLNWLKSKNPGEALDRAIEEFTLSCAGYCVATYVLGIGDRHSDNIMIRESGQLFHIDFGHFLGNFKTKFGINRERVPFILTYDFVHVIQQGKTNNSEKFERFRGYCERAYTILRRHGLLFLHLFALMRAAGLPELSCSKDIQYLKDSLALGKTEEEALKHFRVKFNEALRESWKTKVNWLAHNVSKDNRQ
Sequence of PI3Kδ (P27986 whole entry partner): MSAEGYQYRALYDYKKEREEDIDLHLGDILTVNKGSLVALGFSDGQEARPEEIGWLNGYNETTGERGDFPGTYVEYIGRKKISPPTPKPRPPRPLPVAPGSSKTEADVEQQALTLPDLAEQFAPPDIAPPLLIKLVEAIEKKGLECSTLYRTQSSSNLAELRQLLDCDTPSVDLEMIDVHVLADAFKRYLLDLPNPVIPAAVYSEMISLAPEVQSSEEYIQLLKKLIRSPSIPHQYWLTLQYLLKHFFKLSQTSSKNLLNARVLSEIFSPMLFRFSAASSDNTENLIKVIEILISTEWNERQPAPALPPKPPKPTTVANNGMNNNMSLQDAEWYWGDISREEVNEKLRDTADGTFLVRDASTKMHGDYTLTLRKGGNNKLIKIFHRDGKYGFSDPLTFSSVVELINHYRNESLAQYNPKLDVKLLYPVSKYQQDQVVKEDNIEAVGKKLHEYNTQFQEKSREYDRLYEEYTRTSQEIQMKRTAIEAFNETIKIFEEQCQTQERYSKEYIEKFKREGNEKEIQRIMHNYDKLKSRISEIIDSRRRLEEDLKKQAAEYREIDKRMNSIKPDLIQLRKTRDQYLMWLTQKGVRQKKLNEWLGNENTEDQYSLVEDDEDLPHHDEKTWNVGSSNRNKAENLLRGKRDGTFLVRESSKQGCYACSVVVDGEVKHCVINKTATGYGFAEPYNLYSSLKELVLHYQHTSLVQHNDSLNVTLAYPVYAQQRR
(§4) During the enzymatic reaction phase, the following components were mixed in 10 μL of a same well: 2.5 μL of each dilution in series of inhibitors taken up in DMSO and then diluted to 1/25 in the reaction buffer (250 mM HEPES pH 7.5, 500 mM NaCl, 0.15 CHAPS, 5 mM EGTA, 15 mM MgCl2 and 1 mM DTT, ref.: PV5101 from Invitrogen), 2.5 μL of a solution containing PI3K at the optimum concentration (concentration defined according to the optimization step described in the operating procedure of the kit) diluted in the same reaction buffer, and finally, 5 μL of a solution containing 20 μM ATP and 100 μM PIP2 diluted in the reaction buffer. For each inhibitor concentration, the reaction was conducted in three copies (triplicate). The reaction was then incubated for 60 min at room temperature without any stirring in darkness.
(§5) During the phase for detecting ADP, 5 μL of a detection solution containing an anti-ADP antibody labeled with europium (6 nM), a tracer of the Alexa Fluor® 647 type coupled with ADP (30 nM), and EDTA (30 mM, for stopping the kinase reaction) were diluted in the dilution buffer (reference: PV3574 from Invitrogen). After 30 min of incubation at room temperature with stirring (40 rpm) in darkness, the 384-well plates were read in a plate reader Victor V configured for HTRF (Perkin Elmer). The excitation was produced at 340 nm and emission was measured at 665 nm and 615 nm. The inhibition curve was then plotted according to the emission ratio at 665 nm/615 nm versus the inhibitor concentration.
(§6) In order to obtain a linear response of the signal, a titration curve ATP-ADP, corresponding to the conversion % of ATP into ADP, was achieved by varying both of these species while keeping [ADP]+[ATP]=10 μM. The emission ratio at 665 nm/615 nm resulting from this (Y) was plotted versus the conversion % of ATP into ADP (X). The data of this curve were formatted according to a model with three hyperbolic parameters from the following equation: Y=C+A*(1−(X/(B+X))).
(§7) The software package GraphPad™ Prism® thus allows calculation of the parameters A, B and C. A conversion % corresponds to an emission ratio 665 nm/615 nm, this percentage is calculated by using the following equation: Conversion %=B*(C+A−Ratio)/(Ratio−C)
(§8) The three parameters A, B and C having been defined by the preceding equation, the conversion % was therefore able to be plotted versus the inhibitor concentration. The amount of inhibitor required for causing a 50% variation in the % conversion of ATP into ADP corresponds to the IC50 value of the inhibitor.
(§9) The activity of the kinase PI3Kγγ (PV4786 from Invitrogen) was evaluated on the p110γγ catalytic subunit (PI3KCG) and that of the kinase PI3Kδδ on the purified heterodimer (PV5273) respectively consisting of the δδ catalytic p110 subunit (PIK3CD) and the α regulation p85 subunit (PIK3R1) by following the same procedure.

The target in another data set is PI3Kα (Homo sapiens, UniProt P42336). The data set can be described thus: PI3Kα kinase activity, Adapta TR-FRET ADP detection. The note with it: purified p110α/p85α heterodimer, triplicate; read-out: Kinases IC50 PI3Kα. It is filed as biochemical. The procedure:
as §3, §4, §5, §6, §7, §8
(Time-resolved FRET reads energy transfer from a long-lived donor to a nearby acceptor.)

Another data set has as its target PI3Kγ (Homo sapiens, UniProt P48736). As to the kind of experiment: PI3Kγ kinase activity, Adapta TR-FRET ADP detection. The note with it: p110γ catalytic subunit; read-out: Kinases IC50 PI3Kγ. It is filed as biochemical. The procedure: as §3, §4, §5, §6, §7, §8, §9
The target in a further data set is mTOR (Homo sapiens, UniProt P42345). The data set can be described thus: mTOR kinase activity, LANCE Ultra TR-FRET. It counts as biochemical. The note with it: truncated mTOR protein, triplicate; read-out: Kinases IC50 mTOR. The procedure: The activity of the mTOR kinase was evaluated by using a purified truncated protein of the amino acids 1-1359 (reference: PV4753 from Invitrogen). The assay of the activity of the enzyme was carried out with the kit LANCE® Ultra which is an enzymatic test based on the detection of a phosphorylated peptide produced during the reaction, by using the fluorescence technique TR-FRET. It took place in a 384-well plate and was able to be divided into two phases: an enzymatic reaction phase and a phase for detecting the phosphorylated peptide.
During the enzymatic reaction phase, the following components were mixed in 10 μL of a same well: 5 μL of each dilution in series of inhibitors taken up in DMSO and then diluted to 1/25 in the reaction buffer (50 mM HEPES pH 7.5, 0.1% Tween-20, 1 mM EGTA, 10 mM MnCl2, 3 mM MgCl2 and 2 mM of DTT), 2.5 μL of a solution containing mTOR at the optimum concentration (concentration defined according to the optimization step described in the operating procedure of the kit) diluted in the same reaction buffer, and finally 2.5 μL of a solution containing 40 μM of ATP and 200 μM non-phosphorylated peptide diluted in the reaction buffer. For each inhibitor concentration, the reaction was conducted in three copies (triplicate). The reaction was then incubated for 120 min at room temperature without any stirring in darkness.
During the phase for detecting the phosphorylated peptide, 5 μL of an EDTA solution (32 mM) diluted in the dilution buffer (ref.: CR97-100 from Perkin Elmer) were injected into each well. After 5 min of incubation with stirring, 5 μL of a phosphorylated anti-peptide antibody solution labeled with europium (8 nM) and diluted in the same dilution buffer was added into each well. After 60 min of incubation at room temperature with stirring (40 rpm) in darkness, the 384-well plates were read in a plate reader Victor V configured for HTRF (Perkin Elmer). […] The inhibition curve was then plotted according to the fluorescence intensity value at 665 nm versus the inhibitor concentration.
The amount of inhibitor required for causing a 50% variation in the intensity of the signal corresponds to the IC50 value of the inhibitor.

In the next data set the test system is HacaT. As to the kind of experiment: Toxicity test on cells, HacaT. It counts as cell-based. Particulars: Homo sapiens, 48 hours of treatment, Hoechst nuclei staining. The procedure:
as §1, §2

Sequence of PI3Kα (P42336 whole entry): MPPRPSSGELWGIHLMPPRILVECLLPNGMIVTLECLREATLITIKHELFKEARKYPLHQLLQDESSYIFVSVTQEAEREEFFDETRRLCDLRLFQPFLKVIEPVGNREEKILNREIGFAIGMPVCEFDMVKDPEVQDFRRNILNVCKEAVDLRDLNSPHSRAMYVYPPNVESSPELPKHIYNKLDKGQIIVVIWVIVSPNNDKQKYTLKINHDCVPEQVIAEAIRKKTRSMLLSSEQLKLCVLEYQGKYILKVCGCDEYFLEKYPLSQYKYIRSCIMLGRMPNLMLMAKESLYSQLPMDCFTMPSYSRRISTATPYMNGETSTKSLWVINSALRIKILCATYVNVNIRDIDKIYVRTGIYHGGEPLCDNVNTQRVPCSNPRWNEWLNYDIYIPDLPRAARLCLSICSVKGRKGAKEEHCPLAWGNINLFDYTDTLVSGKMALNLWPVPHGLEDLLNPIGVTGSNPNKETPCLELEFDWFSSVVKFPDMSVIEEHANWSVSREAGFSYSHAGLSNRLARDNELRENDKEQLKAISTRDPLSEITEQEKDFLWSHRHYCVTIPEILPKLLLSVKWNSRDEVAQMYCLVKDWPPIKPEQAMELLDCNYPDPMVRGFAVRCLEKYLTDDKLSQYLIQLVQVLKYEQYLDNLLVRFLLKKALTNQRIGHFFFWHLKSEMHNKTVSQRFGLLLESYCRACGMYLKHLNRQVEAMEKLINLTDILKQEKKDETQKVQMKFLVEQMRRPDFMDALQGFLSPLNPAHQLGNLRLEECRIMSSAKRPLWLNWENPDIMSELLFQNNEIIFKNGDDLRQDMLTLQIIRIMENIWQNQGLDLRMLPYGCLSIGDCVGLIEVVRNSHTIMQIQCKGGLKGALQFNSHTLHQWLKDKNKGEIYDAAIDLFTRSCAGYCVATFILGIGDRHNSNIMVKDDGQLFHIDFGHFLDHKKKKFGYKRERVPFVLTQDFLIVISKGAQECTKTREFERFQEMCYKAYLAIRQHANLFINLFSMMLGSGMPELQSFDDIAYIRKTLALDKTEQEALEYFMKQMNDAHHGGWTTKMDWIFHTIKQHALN
Sequence of PI3Kα (P27986 whole entry partner): as the sequence (P27986 whole entry partner) above
Sequence of PI3Kγ (P48736 whole entry, the tested form may be a part): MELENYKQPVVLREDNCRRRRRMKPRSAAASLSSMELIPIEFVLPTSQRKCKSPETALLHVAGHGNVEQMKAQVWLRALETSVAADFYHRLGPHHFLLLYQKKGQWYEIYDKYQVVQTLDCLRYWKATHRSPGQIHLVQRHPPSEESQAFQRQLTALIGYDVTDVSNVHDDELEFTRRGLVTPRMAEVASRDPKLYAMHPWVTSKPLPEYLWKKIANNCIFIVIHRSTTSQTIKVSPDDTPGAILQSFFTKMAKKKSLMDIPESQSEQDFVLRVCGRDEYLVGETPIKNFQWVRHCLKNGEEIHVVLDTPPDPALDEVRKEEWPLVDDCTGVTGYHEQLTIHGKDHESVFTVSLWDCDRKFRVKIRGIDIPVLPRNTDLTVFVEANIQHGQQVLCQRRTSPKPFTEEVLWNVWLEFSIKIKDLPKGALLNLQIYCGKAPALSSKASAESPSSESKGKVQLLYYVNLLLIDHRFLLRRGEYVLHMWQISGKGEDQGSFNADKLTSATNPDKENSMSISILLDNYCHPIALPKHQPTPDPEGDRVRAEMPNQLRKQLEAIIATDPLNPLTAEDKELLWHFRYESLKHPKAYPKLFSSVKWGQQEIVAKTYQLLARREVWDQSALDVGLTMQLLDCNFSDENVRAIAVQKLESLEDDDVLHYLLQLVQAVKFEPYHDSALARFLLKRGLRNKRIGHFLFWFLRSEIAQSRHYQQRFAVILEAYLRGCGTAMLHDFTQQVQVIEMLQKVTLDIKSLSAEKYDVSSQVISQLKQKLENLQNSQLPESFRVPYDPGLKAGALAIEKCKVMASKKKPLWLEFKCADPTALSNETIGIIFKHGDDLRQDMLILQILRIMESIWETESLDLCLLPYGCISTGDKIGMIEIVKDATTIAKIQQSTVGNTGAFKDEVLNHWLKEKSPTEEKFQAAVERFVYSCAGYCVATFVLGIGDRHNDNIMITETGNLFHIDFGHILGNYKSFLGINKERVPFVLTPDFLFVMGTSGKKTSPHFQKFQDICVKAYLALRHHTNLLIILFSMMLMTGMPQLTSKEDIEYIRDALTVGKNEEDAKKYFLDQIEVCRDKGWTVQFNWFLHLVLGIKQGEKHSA

In turn, `Oc1ccccc1-c1nc(N2CCOCC2)c2ncc(Cl)cc2n1` [Compound 5, 2-(7-Chloro-4-morpholinopyrido[3,2-d]pyrimidin-2-yl)phenol] registered a melting point of 212 °C. Besides, in the data set on Fibroblasts, the IC50 is > 25 µM. In addition, the IC50 in the data set on HCT116 was > 25 µM. Moreover, the IC50 with MDA was > 25 µM. Besides, in the data set on NCl, the IC50 was > 25 µM. Moreover, in the data set with PC3, the IC50 is > 25 µM. Also, the IC50 in the data set with HUH7 was > 25 µM. Further, the concentration for half-maximal inhibition (IC50) in the data set on CaCo2 was > 25 µM.
`Oc1ccc(-c2nc(N3CCOCC3)c3ncc(Cl)cc3n2)cc1` [Compound 7, 4-(7-Chloro-4-morpholinopyrido[3,2-d]pyrimidin-2-yl)phenol] registered a melting point of 253 to 254 °C. In addition, the IC50 on PI3Kδ stood at 1.5 µM. Besides, at PI3Kα, the IC50 stood at 15.2 µM. Further, the IC50 on PI3Kγ was > 50 µM. In addition, the IC50 in the data set on Fibroblasts was > 25 µM. For the same compound, the concentration for half-maximal inhibition (IC50) with HCT116 is > 25 µM. The compound also displayed an IC50 with MDA of 25 µM. The IC50 in the data set with NCl is > 25 µM. Moreover, on mTOR, the IC50 was 0.184 µM. The same compound showed an IC50 in the data set with PC3 of 25 µM. Also, the IC50 in the data set with HUH7 was found to be 25 µM. In the data set with CaCo2, this compound returned an IC50 of 25 µM.
As to `O=[N+]([O-])c1ccc(-c2nc(N3CCOCC3)c3ncc(Cl)cc3n2)cc1` [Compound 10, 4-(7-chloro-2-(4-nitrophenyl)pyrido[3,2-d]pyrimidin-4-yl)morpholine], the melting point is 200 °C.
With `Oc1cccc(-c2nc(N3CCOCC3)c3ncc(CN4CCOCC4)cc3n2)c1` [Compound 29, 3-(4-morpholino-7-(morpholinomethyl)pyrido[3,2-d]pyrimidin-2-yl) phenol hydrochloride], the IC50 in the data set with HacaT is 8 µM; at PI3Kδ, 0.041 µM; on PI3Kα it was 0.043 µM; on PI3Kγ, 1.3 µM; with Fibroblasts it was > 25 µM; in the data set on HCT116 it was 5 µM. Also, the IC50 is > 25 µM with MDA; > 25 µM in the data set with NCl; 0.286 µM at mTOR; 2 µM in the data set with PC3; > 25 µM with HUH7; 3 µM with CaCo2.
With `CN1CCN(Cc2cnc3c(N4CCOCC4)nc(-c4cccc(O)c4)nc3c2)CC1` [Compound 30, 3-(7-((4-methylpiperazin-1-yl)methyl)-4-morpholinopyrido[3,2-d]pyrimidin-2-yl)phenol hydrochloride], the IC50 in the data set with HacaT is 8 µM; at PI3Kδ, 0.157 µM; on PI3Kα, 0.391 µM; at PI3Kγ, 0.244 µM; in the data set with Fibroblasts, > 25 µM; in the data set with HCT116 it was 10 µM. In addition, the IC50 worked out at 20 µM with MDA; 15 µM in the data set on NCl; 2.2 µM on mTOR; 7 µM in the data set with PC3; 5 µM with HUH7; 2 µM with CaCo2.
For `[N-]=[N+]=NCc1cnc2c(N3CCOCC3)nc(-c3cccc(O)c3)nc2c1` [Compound 39, 3-(7-(azidomethyl)-4-morpholinopyrido[3,2-d]pyrimidin-2-yl)phenol], the IC50 is 4 µM in the data set with HacaT; 0.022 µM on PI3Kδ; 0.01 µM at PI3Kα; 0.043 µM on PI3Kγ; > 25 µM in the data set on Fibroblasts; 5 µM with HCT116. For the same compound, the IC50 in the data set with MDA is > 25 µM; in the data set on NCl it was 3 µM; on mTOR it was 0.055 µM; in the data set on PC3, 3 µM; in the data set with HUH7 it was 4 µM; in the data set on CaCo2 it was 2 µM.
For the compound `Oc1cccc(-c2nc(N3CCOCC3)nc3cc(Cl)cnc23)c1` [Compound 51, 3-(7-chloro-2-morpholinopyrido[3,2-d]pyrimidin-4-yl)phenol], the IC50 with HacaT is > 25 µM; on PI3Kδ, 3.9 µM; on PI3Kα, 0.546 µM; at PI3Kγ, 5 µM; with Fibroblasts it was > 25 µM; in the data set with HCT116, > 25 µM. In addition, the half-inhibitory concentration (IC50) in the data set on MDA was > 25 µM; in the data set with NCl, > 25 µM; at mTOR, 5.2 µM; in the data set with PC3 it was > 25 µM; with HUH7, > 25 µM; in the data set with CaCo2 it was 20 µM.
With `O=C(Nc1ccc(-c2nc(N3CCOCC3)c3ncc(CN4CCOCC4)cc3n2)cc1)Nc1cccc(CO)c1` [Compound 80, 1-[3-(hydroxymethyl)phenyl]-3-{4-[4-(morpholin-4-yl)-7-(morpholin-4-ylmethyl)pyrido[3,2-d]pyrimidin-2-yl]phenyl}urea], the melting point lay within 200 to 202 °C.

The melting point is the temperature of the solid-liquid transition. Broadly, the IC50 is the concentration that gives 50% inhibition.

The values above are taken from patent US10202372B2, “Trisubstituted pyrido[2,3-D]pyrimidines, methods for preparing same and therapeutic uses thereof” (CENTRE NATIONAL DE LA RECHERCHE SCIENTIFIQUE (C.N.R.S), priority 2012, dated 2019).
